# Assay results published in patent US5358712A, “Radiopharmaceutical agents for the detection of Alzheimer's disease” (Regents of the University of Minnesota, priority 1993, dated 1994).
# “Also recorded” adds a separate entry of the source.
# Legend:
# [1] = Tissue distribution (biodistribution) of radioiodinated compound in the rat; details: for Brain: Blood Ratio / Heart: Blood Ratio: iv
# [2] = tested on: rat brain; assay: Ex vivo autoradiographic studies, regional distribution in the rodent brain; set-up: species or system rat (male Wistar); details: 3 hours
# Experimental: Four male Wistar rats weighing 300-330 g. were anesthetized with diethyl ether. While under anesthesia two animals each received an intravenous dose of 300 μCi of (-)-4-[^125 I]HIPP in […] of 50% aqueous ethanol. The second pair of animals received an iv dose of (+)-4-[^125I]HIPP (170 μCi) in the same solvent. The animals were sacrificed by decapitation three hours following radiotracer administration. The brains were harvested, embedded in Tissue Tek OCT embedding medium and frozen to -38° C. Twenty-micron thick brain sections were obtained at -15° C. using a Reicheft HistoSTAT cryostat microtome. The sections were dried and opposed to Kodak NMC film for autoradiography accompanied by external standards (^125 I-labelled microscales from Amersham). Images were subsequently digitized based on the linear scale obtained from these standards.
# [3] = tested on: vesamicol receptor; assay: Blocking experiments: inhibition of radiotracer accumulation in the rat by coadministered compound; type: in vivo, rat (male Wistar); details: rat, 60 min; for Brain: Blood Ratio / Heart: Blood Ratio / radioactivity in blood / radioactivity in brain / radioactivity in heart / radioactivity in kidney / radioactivity in liver / radioactivity in lung / radioactivity in muscle / radioactivity in spleen: iv
# How it was run: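 Male Wistar rats (n=3/group) got iv radiotracer, alone or coadministered with blocker (e.g. (+)/(−)-HBrPP·HCl 1.3 μmol/kg, vesamicol·HCl 1.1 μmol/kg, or 0.31–0.53 mg/kg in other series). Blood and tissues taken 60 min post-injection to assess radiotracer accumulation.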
# [4] = tested on: vesicular acetylcholine storage; details: Rogers et al 1989, cited from earlier work; for vesamicol-like inhibitory activity (in words): Kaufman et al 1988
# [5] = tested on: vesamicol receptor; details: cited from earlier work
# [6] = coadministered blocker, listed as (+)-[^125 I]5
# [7] = + (dl)-vesamicol HCl 0.3 (Table 3) or 0.31 mg/kg
smiles,measurement,setting,value
"OC(Cc1ccc([125I])cc1)CN1CCC(c2ccccc2)CC1 (single isomer, unassigned; (+)) [(+)-4-[^125 l]HIPP] [2-Hydroxy-3-(4-iodophenyl)-1-(4-phenylpiperidyl)propane]",tissue distribution profile compared with (-)-[^125 I]5,[1]; rat,similar
same,injected dose found in the brain,"[1]; rat, 5 minutes post injection, listed as (+)-[^125 I]5",2.27 % of the injected dose
same,injected dose found in the heart,"[1]; rat, 5 minutes post-injection, listed as (+)-[^125 I]5",1.23 % of the injected dose
same,decrease of radioactivity in the heart,"[1]; rat, between 5 and 30 minutes",32%
same,concentration of radioactivity in the brain over time,"[1]; rat, duration of the study (3 hours), listed as (+)-[^125 I]5",remained essentially constant
same,Brain: Blood Ratio,"[1]; rat, 5 min",15.2
same,Heart: Blood Ratio,"[1]; rat, 5 min",22.7
same,Brain: Blood Ratio,"[1]; rat, 30 min",32.4
same,Heart: Blood Ratio,"[1]; rat, 30 min",32.7
same,Brain: Blood Ratio,"[1]; rat, 60 min",44.3
same,Heart: Blood Ratio,"[1]; rat, 60 min",40.2
same,Brain: Blood Ratio,"[1]; rat, 180 min",44.8
same,Heart: Blood Ratio,"[1]; rat, 180 min",28.2
same,level of radioactivity in the blood,"[1]; rat, throughout the study",low
same,brain retention (in words),[1]; rodent (and monkey),comparable retention
same,radioactivity in cerebellar molecular layer relative to granular layer,[2],slightly higher concentration
same,radioactivity in frontal cortex and caudate-putamen,[2],Moderate levels
same,radioactivity in pineal gland and nuclei of fifth and seventh cranial nerves,[2],highest levels
same,radioactivity in the white matter,[2],relatively low
same,reduction of accumulation of radioactivity in the brain,[3]; [6],53%-58%
same,reduction of accumulation of radioactivity in the heart,[3]; [6],74% -76%
same,Brain: Blood Ratio,[3]; + (+)-7 HCl 0.53 mg/kg,3.9
same,Heart: Blood Ratio,[3]; + (+)-7 HCl 0.53 mg/kg,1.8
same,radioactivity in blood,[3]; + (+)-7 HCl 0.53 mg/kg,0.06 % dose/g of tissue
same,radioactivity in brain,[3]; + (+)-7 HCl 0.53 mg/kg,0.32 % dose/g of tissue
same,radioactivity in heart,[3]; + (+)-7 HCl 0.53 mg/kg,0.15 % dose/g of tissue
same,radioactivity in kidney,[3]; + (+)-7 HCl 0.53 mg/kg,0.47 % dose/g of tissue
same,radioactivity in liver,[3]; + (+)-7 HCl 0.53 mg/kg,1.13 % dose/g of tissue
same,radioactivity in lung,[3]; + (+)-7 HCl 0.53 mg/kg,1.29 % dose/g of tissue
same,radioactivity in muscle,[3]; + (+)-7 HCl 0.53 mg/kg,0.08 % dose/g of tissue
same,radioactivity in spleen,[3]; + (+)-7 HCl 0.53 mg/kg,0.71 % dose/g of tissue
same,radioactivity in spleen,[3]; + (-)-7 HCl 0.53 mg/kg,0.57 % dose/g of tissue
same,Brain: Blood Ratio,[3]; + (-)-7 HCl 0.53 mg/kg,4.5
same,Heart: Blood Ratio,[3]; + (-)-7 HCl 0.53 mg/kg,2.0
same,radioactivity in blood,[3]; + (-)-7 HCl 0.53 mg/kg,0.05 % dose/g of tissue
same,radioactivity in brain,[3]; + (-)-7 HCl 0.53 mg/kg,0.32 % dose/g of tissue
same,radioactivity in heart,[3]; + (-)-7 HCl 0.53 mg/kg,0.16 % dose/g of tissue
same,radioactivity in kidney,[3]; + (-)-7 HCl 0.53 mg/kg,0.54 % dose/g of tissue
same,radioactivity in liver,[3]; + (-)-7 HCl 0.53 mg/kg,0.90 % dose/g of tissue
same,radioactivity in lung,[3]; + (-)-7 HCl 0.53 mg/kg,1.51 % dose/g of tissue
same,radioactivity in muscle,[3]; + (-)-7 HCl 0.53 mg/kg,0.09 % dose/g of tissue
same,Brain: Blood Ratio,[3]; [7],9.7
same,Heart: Blood Ratio,[3]; [7],3.8
same,radioactivity in blood,[3]; [7],0.04 % dose/g of tissue
same,radioactivity in brain,[3]; [7],0.36 % dose/g of tissue
same,radioactivity in heart,[3]; [7],0.15 % dose/g of tissue
same,radioactivity in kidney,[3]; [7],0.46 % dose/g of tissue
same,radioactivity in liver,[3]; [7],2.23 % dose/g of tissue
same,radioactivity in lung,[3]; [7],1.11 % dose/g of tissue
same,radioactivity in muscle,[3]; [7],0.08 % dose/g of tissue
same,radioactivity in spleen,[3]; [7],0.68 % dose/g of tissue
same,Brain: Blood Ratio,[3]; radiotracer only (control),28.7
same,Heart: Blood Ratio,[3]; radiotracer only (control),39.8
same,radioactivity in blood,[3]; radiotracer only (control),0.02 % dose/g of tissue
same,radioactivity in brain,[3]; radiotracer only (control),0.76 % dose/g of tissue
same,radioactivity in heart,[3]; radiotracer only (control),0.60 % dose/g of tissue
same,radioactivity in kidney,[3]; radiotracer only (control),1.63 % dose/g of tissue
same,radioactivity in liver,[3]; radiotracer only (control),1.38 % dose/g of tissue
same,radioactivity in lung,[3]; radiotracer only (control),3.46 % dose/g of tissue
same,radioactivity in muscle,[3]; radiotracer only (control),0.13 % dose/g of tissue
same,radioactivity in spleen,[3]; radiotracer only (control),1.10 % dose/g of tissue
OCCN1CCC(c2ccccc2)CC1 [Compound 4],vesamicol-like inhibitory activity (in words),[4],weak inhibitors; also recorded: very weak inhibitor
same,potency relative to vesamicol,[4],two hundred and fifty times less potent
CC(O)CN1CCC(c2ccccc2)CC1 (stereo not drawn) [Compound 14],vesamicol-like inhibitory activity (in words),[4],weak inhibitors
OC1Cc2ccccc2CC1N1CCC(c2ccccc2)CC1 (stereo not drawn) [Compound 1],vesamicol-like inhibitory activity (in words),[4],potent
same,eudesmic ratio,[5],not unity
